These results are taken from article PMC6010093, “α-Glucosidase inhibitory activity and cytotoxic effects of some cyclic urea and carbamate derivatives” (Journal of Enzyme Inhibition and Medicinal Chemistry, 2017).

Structures are written as SMILES. “Also recorded” adds a separate entry of the source.

Broadly, the IC50 is the point on the concentration scale where inhibition reaches its midpoint.

In assay [1] the test system is HeLa, cervix adenocarcinoma cell line. Kind of assay: MTT cytotoxicity assay, HeLa. In kind it is cell-based. As to conditions: Homo sapiens, 72 h exposure, mean ± standard deviation. (In general: Formazan colour is commonly taken as a measure of viable cells.)
For assay [2], the system named is A549, non-small cell lung carcinoma cell line. Description: MTT cytotoxicity assay, A549. The class given is cell-based. As to conditions: Homo sapiens, 72 h exposure, mean ± standard deviation.
The subject of assay [3] is MDA-MB-453 human breast cancer cell line. Kind of assay: MTT cytotoxicity assay, MDA-MB-453. In kind it is cell-based. As to conditions: 72 h exposure, mean ± standard deviation.
Another assay relates to HeLa cells. Kind of assay: Morphological evaluation of cell death (acridine orange/ethidium bromide staining, fluorescence microscope). In kind it is cell-based, human. Here is the method: After 24 h of seeding 80 000 HeLa cells per well, they were treated with compound dilutions of IC50 and 2 × IC50 in control only nutrient medium was added. After another 24 h of incubation cells were stained with acridine orange AO and ethidium bromide EB (3 μg/mLAO +10 μg/mL EB in PBS), then visualized under a fluorescence microscope (Carl Zeiss, Oberkochen, Germany) PALM MicroBeam with Axio Observer.Z1 using AxioCam MRm (filters Alexa 488 and 568), as described in literature.
Morphological changes were observed after cells were stained with acridine orange and ethidium-bromide. Acridine orange can penetrate into the living cells and emits green fluorescence, while ethidium-bromide enters the cells after cell membrane damage and emits red fluorescence. […] Observed control cells are with unchanged morphology, stained green.

Setting [4] is: 24 h treatment with 2 × IC50 concentration of compound.
The mark [5] stands for this setting: 24 h treatment with IC50 dilution of compound.

With `COC(=O)Nc1cc(OC)c(OC)c(OC)c1` [Compound 11], the IC50 in assay [1] is 194.4 ± 1.44 µM; in assay [2], 200 ± 2.37 µM; in assay [3] it was 164 ± 3.93 µM. The “Morphological changes of HeLa cells (cell death type)” value (from here on “Morphological changes of HeLa cells”) is recorded as “necrotic changes” in the assay on HeLa cells (setting [4]) and “late apoptotic signs; also recorded: apoptosis occurred” with HeLa cells (setting [5]).

With `CC(C)(C)OC(=O)N1CCC(NC(=O)OCc2ccccc2)CC1` [Compound 8], the IC50 in assay [1] was found to be 158 ± 6.04 µM; in assay [2] it was 155.8 ± 0.7 µM; in assay [3], 112 ± 4.91 µM. For the same molecule, the figures for the “Morphological changes of HeLa cells” value in the assay with HeLa cells (setting [4]) and with HeLa cells (setting [5]) were “necrotic changes” and “late apoptotic signs; also recorded: apoptosis occurred”, respectively.

`COc1cc(NC(=O)OCc2ccccc2)cc(OC)c1OC` [Compound 12, benzyl (3,4,5-trimethoxyphenyl)carbamate]: the concentration for half-maximal inhibition (IC50) in assay [1] was determined as 139 ± 8.28 µM; in assay [2], 180 ± 2.57 µM; in assay [3], 108 ± 4.95 µM. Moreover, the “Morphological changes of HeLa cells” value in the assay on HeLa cells (setting [4]) is reported as “necrotic changes”; in the assay on HeLa cells (setting [5]), “late apoptotic signs; also recorded: apoptosis occurred”.
